# Columns and labels:
# [1] = Compound stability in human liver microsomes; assay type: in vitro ADME; conditions: for Human T1/2 / half-life at 5 μM: human liver microsomes 0.5 mg protein/mL, compound 5 μM, NADPH 1.0 mM, 37° C.; for half-life at 5 μM / CLint scaled at 5 μM: pH 7.4; for half-life at 5 μM: read-out: Human T1/2; for CLint scaled at 5 μM: human liver microsomes, in vivo CLint extrapolated
# Description: (§1) Human or rat liver microsomes incubations were conducted in duplicate in polypropylene tubes. The typical incubation mixtures consisted of human or rat liver microsomes (0.5 mg protein/mL), compounds of interest (5 μM) and NADPH (1.0 mM) in a total volume of 200 μL potassium phosphate buffer (PBS, 100 mM, pH=7.4). Compounds were dissolved in DMSO and diluted with PBS such that the final concentration of DMSO was 0.05%. The enzymatic reactions were commenced with the addition of […] after a 3-min preincubation and incubated in a water bath open to the air at 37° C. Reactions were terminated at various time points (0, 5, 10, 15, 30, 60 min) by adding equal volume of ice-cold acetonitrile. The samples were stored at −80° C. until LC/MS/MS assays.
# (§2) The concentrations of compounds in the incubation mixtures of human or rat liver microsomes were determined by a LC/MS/MS method. The ranges of the linearity in the concentration range were determined for each tested compounds.
# (§3) A parallel incubation was performed using denatured microsomes as the negative control, and reactions were terminated at various time points (0, 15, 60 min) after incubation at 37° C.
# (§4) Dextromethorphan (70 μM) was selected as the positive control, and reactions were terminated at various time points (0, 5, 10, 15, 30, 60 min) after incubation at 37° C. Both positive and negative control samples were included in each assay to ensure the integrity of the microsomal incubation system.
# (§5) The concentrations of compounds in human or rat liver microsome incubations were plotted as a percentage of the relevant zero time point control for each reaction. The in vivo CLint were extrapolated (ref: Naritomi Y, Terashita S, Kimura S, Suzuki A, Kagayama A, Sugiyama Y. Prediction of human hepatic clearance from in vivo animal experiments and in vitro metabolic studies with liver microsomes from animals and humans. Drug Metabolism and Disposition 2001, 29: 1316-1324).
# PI3K p110α/p85α (h) = biological target: T1, PI3K p110α/p85α (h) (Homo sapiens, UniProt P42336); assay: PI3K p110α/p85α (h) non-radioactive HTRF assay; assay type: biochemical
# T1 construct: purchased Millipore UK Ltd (assay service)
# Description: (§6) PI3K p110α/p85α (h) is incubated in assay buffer containing 10 μM phosphatidylinositol 4,5-bisphosphate and MgATP (concentration as required). The reaction is initiated by the addition of the ATP solution. After incubation for 30 minutes at room temperature, the reaction is stopped by the addition of stop solution containing EDTA and biotinylated phosphatidylinositol-3,4,5-trisphosphate. Finally, detection buffer is added, which contains europium-labelled anti-GST monoclonal antibody, GST-tagged GRP1 PH domain and streptavidin allophycocyanin. The plate is then read in timeresolved fluorescence mode and the homogenous time-resolved fluorescence (HTRF) signal is determined according to the formula HTRF=10000×(Em665 nm/Em620 nm).
# (§7) The kinase assays described herein were performed at Millipore UK Ltd, Dundee Technology Park, Dundee DD2 1SW, UK.
# PI3K p110β/p85α (h) = biological target: T2, PI3K p110β/p85α (h) (Homo sapiens, UniProt P42338); assay: PI3K p110β/p85α (h) non-radioactive HTRF assay; assay type: biochemical
# T2 construct: purchased Millipore UK Ltd (assay service)
# Description: as §6, with “(p110β/p85α)” for “p110α/p85α”, “phosphatidylinositol-4,5-bisphosphate” for “phosphatidylinositol 4,5-bisphosphate”, “MgATP mix.” for “ATP solution.”, “streptavidin-allophycocyanin.” for “streptavidin allophycocyanin.”
# as §7
# [2] = Pharmacokinetic profiles in mice after intravenous and oral administration; assay type: in vivo; conditions: Mouse; for F: oral dose generally 5 or 10 mg/kg; for AUC(0-t) / half-life / Vd: plasma; for Vd: read-out: Vss
# Description: (§8) The compounds disclosed herein are assessed in pharmacokinetic studies in mice, rats, dogs or monkeys. The compounds are administered as a water solution, 2% HPMC+1% TWEEN® 80 in water solution, 5% DMSO+5% solutol in saline, 4% MC suspension or capsule. For the intravenous administration, the animals are generally given at 1 or 2 mg/kg dose. For the oral (p.o.) dosing, mice and rats are generally given 5 or 10 mg/kg dose, and dogs and monkeys are generally given 10 mg/kg dose. The blood samples (0.3 mL) are drawn at 0.25, 0.5, 1.0, 2.0, 3.0, 4.0, 6.0, 8.0, 12 and 24 h time points or 0.083, 0.25, 0.5, 1.0, 2.0, 4.0, 6.0, 8.0 and 24 h time points and centrifuged at 3,000 or 4000 rpm for 2 to 10 min. The plasma solutions are collected, stored at −20° C. or −70° C. until analyzed by LC/MS/MS as described above.
# [3] = Compound stability in rat liver microsomes; assay type: in vitro ADME; conditions: for Rat T1/2 / half-life at 5 μM: rat liver microsomes 0.5 mg protein/mL, compound 5 μM, NADPH 1.0 mM, 37° C.; for half-life at 5 μM / CLint scaled at 5 μM: pH 7.4; for half-life at 5 μM: read-out: Rat T1/2; for CLint scaled at 5 μM: rat liver microsomes, in vivo CLint extrapolated
# Description: as §1, §2, §3, §4, §5
# [4] = Pharmacokinetic profiles in dogs after intravenous and oral administration; assay type: in vivo; conditions: Dog; for F: iv dose 1 mg/kg, oral dose generally 10 mg/kg; for Clearance (CL) / AUC(0-t) / half-life / Vd: iv dosing 1 mg/kg; for AUC(0-t) / half-life / Vd: plasma; for Vd: read-out: Vss
# Description: as §8
# PI3K (p120γ) (h) = biological target: T3, PI3K (p120γ) (h) (Homo sapiens, UniProt P48736); assay: PI3K p120γ (h) non-radioactive HTRF assay; assay type: biochemical
# T3 construct: purchased Millipore UK Ltd (assay service)
# Description: as §6, with “(p120γ)” for “p110α/p85α”, “phosphatidylinositol-4,5-bisphosphate” for “phosphatidylinositol 4,5-bisphosphate”, “MgATP mix.” for “ATP solution.”, “streptavidin-allophycocyanin.” for “streptavidin allophycocyanin.”
# as §7
# T3 sequence (P48736 whole entry): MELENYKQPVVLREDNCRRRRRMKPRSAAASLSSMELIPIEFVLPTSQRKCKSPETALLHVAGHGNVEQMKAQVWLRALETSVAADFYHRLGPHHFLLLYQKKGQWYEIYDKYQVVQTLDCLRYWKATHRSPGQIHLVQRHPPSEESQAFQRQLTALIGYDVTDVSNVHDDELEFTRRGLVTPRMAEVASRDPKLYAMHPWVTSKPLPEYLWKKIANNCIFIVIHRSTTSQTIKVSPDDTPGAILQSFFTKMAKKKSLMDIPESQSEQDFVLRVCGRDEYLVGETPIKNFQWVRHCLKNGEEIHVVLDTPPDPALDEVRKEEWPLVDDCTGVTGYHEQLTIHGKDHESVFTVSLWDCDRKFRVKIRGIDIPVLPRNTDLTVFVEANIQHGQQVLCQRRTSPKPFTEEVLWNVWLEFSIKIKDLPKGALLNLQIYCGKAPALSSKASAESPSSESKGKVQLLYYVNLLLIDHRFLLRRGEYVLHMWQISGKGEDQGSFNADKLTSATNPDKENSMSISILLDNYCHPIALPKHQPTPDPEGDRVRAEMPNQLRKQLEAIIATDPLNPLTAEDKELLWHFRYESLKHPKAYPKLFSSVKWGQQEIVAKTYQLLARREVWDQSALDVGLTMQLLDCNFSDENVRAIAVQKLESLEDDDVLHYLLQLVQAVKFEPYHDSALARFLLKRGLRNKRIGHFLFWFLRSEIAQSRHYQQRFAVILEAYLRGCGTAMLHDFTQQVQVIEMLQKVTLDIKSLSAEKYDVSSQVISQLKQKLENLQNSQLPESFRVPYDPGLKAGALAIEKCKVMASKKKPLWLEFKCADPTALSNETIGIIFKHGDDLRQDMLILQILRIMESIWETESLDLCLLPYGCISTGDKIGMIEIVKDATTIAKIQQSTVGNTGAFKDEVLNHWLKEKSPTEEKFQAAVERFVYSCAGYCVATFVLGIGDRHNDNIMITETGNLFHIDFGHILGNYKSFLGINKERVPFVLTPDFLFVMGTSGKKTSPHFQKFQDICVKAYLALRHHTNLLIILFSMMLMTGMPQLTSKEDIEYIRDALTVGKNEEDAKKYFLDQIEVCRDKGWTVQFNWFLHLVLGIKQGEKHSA
# T1 sequence (P42336 whole entry): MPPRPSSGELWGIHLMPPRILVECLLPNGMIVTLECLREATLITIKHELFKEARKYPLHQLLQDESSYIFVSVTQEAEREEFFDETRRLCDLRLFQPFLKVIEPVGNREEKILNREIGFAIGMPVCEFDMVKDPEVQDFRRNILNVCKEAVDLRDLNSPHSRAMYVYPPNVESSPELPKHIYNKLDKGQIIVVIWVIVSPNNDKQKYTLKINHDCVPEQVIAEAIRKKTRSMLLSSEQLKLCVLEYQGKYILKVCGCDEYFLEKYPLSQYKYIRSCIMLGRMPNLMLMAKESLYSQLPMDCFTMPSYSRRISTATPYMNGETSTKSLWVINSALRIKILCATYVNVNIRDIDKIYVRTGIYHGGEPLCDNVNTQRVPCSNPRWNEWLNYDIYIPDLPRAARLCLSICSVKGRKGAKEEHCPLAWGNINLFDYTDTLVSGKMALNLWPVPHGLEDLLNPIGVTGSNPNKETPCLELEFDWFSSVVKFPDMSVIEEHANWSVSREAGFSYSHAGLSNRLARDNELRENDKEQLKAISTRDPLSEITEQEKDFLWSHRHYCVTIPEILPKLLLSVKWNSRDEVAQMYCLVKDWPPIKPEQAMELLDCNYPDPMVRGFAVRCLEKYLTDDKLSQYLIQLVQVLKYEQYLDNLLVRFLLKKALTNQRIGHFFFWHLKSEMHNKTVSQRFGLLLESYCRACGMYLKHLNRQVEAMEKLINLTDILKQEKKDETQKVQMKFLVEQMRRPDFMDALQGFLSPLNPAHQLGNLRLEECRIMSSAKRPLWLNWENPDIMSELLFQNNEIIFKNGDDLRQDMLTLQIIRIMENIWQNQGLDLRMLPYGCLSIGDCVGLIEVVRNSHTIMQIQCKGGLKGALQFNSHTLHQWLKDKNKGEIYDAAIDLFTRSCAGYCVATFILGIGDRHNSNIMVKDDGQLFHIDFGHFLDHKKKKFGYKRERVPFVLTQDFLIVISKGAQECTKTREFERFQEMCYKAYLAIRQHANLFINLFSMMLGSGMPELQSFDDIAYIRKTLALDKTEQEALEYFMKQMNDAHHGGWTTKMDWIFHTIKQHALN
# T1 sequence (P27986 whole entry partner): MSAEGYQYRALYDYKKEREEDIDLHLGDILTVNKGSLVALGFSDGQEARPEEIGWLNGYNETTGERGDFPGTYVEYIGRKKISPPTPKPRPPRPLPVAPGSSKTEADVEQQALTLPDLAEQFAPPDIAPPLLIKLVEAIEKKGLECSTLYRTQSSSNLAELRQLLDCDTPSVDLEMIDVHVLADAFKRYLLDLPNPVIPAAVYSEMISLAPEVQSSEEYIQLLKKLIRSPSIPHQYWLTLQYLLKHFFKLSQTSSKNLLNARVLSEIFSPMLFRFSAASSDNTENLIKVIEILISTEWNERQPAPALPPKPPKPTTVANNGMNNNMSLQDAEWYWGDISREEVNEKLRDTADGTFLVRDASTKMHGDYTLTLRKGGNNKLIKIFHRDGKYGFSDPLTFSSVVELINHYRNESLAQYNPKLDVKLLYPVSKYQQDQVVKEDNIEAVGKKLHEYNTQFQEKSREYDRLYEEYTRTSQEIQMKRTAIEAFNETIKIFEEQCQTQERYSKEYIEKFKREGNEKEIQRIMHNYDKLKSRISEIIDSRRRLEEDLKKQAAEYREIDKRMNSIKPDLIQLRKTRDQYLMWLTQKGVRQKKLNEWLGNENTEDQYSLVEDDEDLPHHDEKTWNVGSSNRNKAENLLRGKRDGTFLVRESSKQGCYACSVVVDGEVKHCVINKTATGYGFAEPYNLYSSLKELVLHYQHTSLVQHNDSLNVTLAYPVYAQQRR
# T2 sequence (P42338 whole entry): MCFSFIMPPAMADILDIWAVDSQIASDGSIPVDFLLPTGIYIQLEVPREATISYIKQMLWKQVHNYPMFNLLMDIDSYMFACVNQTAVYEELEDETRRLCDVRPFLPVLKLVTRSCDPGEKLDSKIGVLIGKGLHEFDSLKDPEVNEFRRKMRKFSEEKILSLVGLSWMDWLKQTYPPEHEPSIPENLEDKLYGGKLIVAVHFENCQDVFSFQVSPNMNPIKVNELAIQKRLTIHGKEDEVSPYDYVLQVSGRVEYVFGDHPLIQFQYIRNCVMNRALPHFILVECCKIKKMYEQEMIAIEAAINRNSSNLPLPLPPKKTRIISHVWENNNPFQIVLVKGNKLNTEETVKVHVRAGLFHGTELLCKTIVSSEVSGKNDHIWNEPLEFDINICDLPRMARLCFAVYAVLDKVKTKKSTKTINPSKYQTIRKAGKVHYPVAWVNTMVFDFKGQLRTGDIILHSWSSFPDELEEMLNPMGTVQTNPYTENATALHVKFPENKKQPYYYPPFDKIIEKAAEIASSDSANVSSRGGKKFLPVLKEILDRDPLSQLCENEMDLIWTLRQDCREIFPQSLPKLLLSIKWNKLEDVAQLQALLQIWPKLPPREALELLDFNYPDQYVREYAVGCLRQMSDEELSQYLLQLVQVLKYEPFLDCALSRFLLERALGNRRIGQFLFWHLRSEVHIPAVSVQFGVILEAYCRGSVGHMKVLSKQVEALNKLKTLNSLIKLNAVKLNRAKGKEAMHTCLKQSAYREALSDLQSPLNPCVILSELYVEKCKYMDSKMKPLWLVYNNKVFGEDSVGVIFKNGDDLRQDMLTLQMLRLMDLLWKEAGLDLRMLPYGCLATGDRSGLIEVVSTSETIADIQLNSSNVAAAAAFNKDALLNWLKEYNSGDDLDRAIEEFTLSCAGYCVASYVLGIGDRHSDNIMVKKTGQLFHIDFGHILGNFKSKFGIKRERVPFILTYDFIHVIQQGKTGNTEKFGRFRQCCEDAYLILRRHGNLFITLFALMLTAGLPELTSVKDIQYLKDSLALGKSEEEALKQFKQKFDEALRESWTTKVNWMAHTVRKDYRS
# T2 sequence (P27986 whole entry partner): as the sequence (P27986 whole entry partner) above
SMILES,Human T1/2 [1],IC50 (PI3K p110α/p85α (h)),IC50 (PI3K p110β/p85α (h)),F ([2]; iv dose 2 mg/kg),Cl/F ([2]; iv dosing 2 mg/kg),AUC(0-t) ([2]; iv dosing 2 mg/kg),half-life ([2]; iv dosing 2 mg/kg),Vd ([2]; iv dosing 2 mg/kg),Rat T1/2 [3],F [4],Clearance (CL) [4],AUC(0-t) [4],half-life [4],Vd [4],half-life at 5 μM [1],CLint scaled at 5 μM [1],IC50 (PI3K (p120γ) (h)),half-life at 5 μM [3],CLint scaled at 5 μM [3],also measured
"COc1ncc(-c2ccc3ncc(C#CCO)n3n2)cc1NS(=O)(=O)c1ccc(F)cc1F [Ex. 9, 2,4-difluoro-N-(5-(3-(3-hydroxyprop-1-yn-1-yl)imidazo[1,2-b]pyridazin-6-yl)-2-methoxypyridin-3-yl)benzenesulfonamide]",∞,2 nM,38 nM,118.7%,6.17 mL/min/kg,5330 ng·h/mL,4.02 h,0.57 L/kg,∞,44.2%,6.17 mL/min/kg,2750 ng·h/mL,0.73 h,0.31 L/kg,–,–,–,–,–,–
"COc1ncc(-c2ccc3ncc(C#CCO)n3c2)cc1NS(=O)(=O)c1ccc(F)cc1F [Ex. 15, 2,4-difluoro-N-(5-(3-(3-hydroxyprop-1-yn-1-yl)imidazo[1,2-a]pyridin-6-yl)-2-methoxypyridin-3-yl)benzenesulfonamide]",–,2 nM,27 nM,–,–,–,–,–,–,108.5%,7.67 mL/min/kg,2170 ng·h/mL,0.74 h,0.37 L/kg,8.39 h,3.45 mL/min/kg,37 nM,2.01 h,20.6 mL/min/kg,F ([2]; iv dose 1 mg/kg): 116.9%; AUC(0-t) ([2]; iv dosing 1 mg/kg): 20000 ng·h/mL; half-life ([2]; iv dosing 1 mg/kg): 2.83 h
"COc1ncc(-c2ccc3ncc(C#CC(C)O)n3c2)cc1NS(=O)(=O)c1ccc(F)cc1F (stereo not drawn) [Ex. 16, 2,4-difluoro N (5 (3 (3 hydroxybut-1-yn-1-yl)imidazo[1,2-a]pyridin-6-yl)-2-methoxypyridin-3-yl)benzenesulfonamide]",–,2 nM,66 nM,–,–,–,–,–,–,–,–,–,–,–,5.22 h,5.55 mL/min/kg,5 nM,0.894 h,46.3 mL/min/kg,–
"COc1ncc(-c2ccc3ncc(C#N)n3n2)cc1NS(=O)(=O)c1ccc(F)cc1F [Ex. 24, N-(5-(3-cyanoimidazo[1,2-b]pyridazin-6-yl)-2-methoxypyridin-3-yl)-2,4-difluorobenzenesulfonamide]",∞,2 nM,26 nM,72.6%,0.33 mL/min/kg,96100 ng·h/mL,5.25 h,0.14 L/kg,∞,108.5%,9 mL/min/kg,1840 ng·h/mL,0.57 h,0.37 L/kg,–,–,4 nM,–,–,–

# Reference: patent US9926324B2, “Heteroaromatic compounds as PI3 kinase modulators and methods of use” (Calitor Sciences, LLC, priority 2012, dated 2018)
